Laboratory results: the NIST ThermoML archive (doi:10.1016/j.tca.2019.02.008)

What was measured:
[1] = Molar enthalpy of transition or fusion; conditions: DSC
[2] = for vapor or sublimation pressure: Transpiration method; for Triple point temperature: DSC

Br.CN [methylammonium bromide]
Conditions	Molar enthalpy of transition or fusion, Crystal 2 [kcal/mol]	Molar enthalpy of transition or fusion, Crystal 3 [kcal/mol]	Triple point temperature, Crystal 1 [K]	Triple point temperature, Crystal 2 [K]	Triple point temperature, Crystal 3 [K]
[1]	0.868	0.351	–	–	–
[2]	–	–	520.5	480.8	392.1

vapor or sublimation pressure [kPa], [2]
Conditions	433 K	444 K	454 K	463 K	468 K	473 K	488 K	493 K	498 K	503 K
Crystal 1	–	–	–	–	–	–	0.1234	0.1563	0.1897	0.2394
Crystal 2	0.0057	0.0104	0.0202	0.0348	0.0413	0.0576	–	–	–	–
